Test results taken from patent US11622966B2 (A2A Pharmaceuticals, Inc., priority 2018, dated 2023).
Entries after “also recorded” stand apart in the source; their conditions may differ.

Assays:
[1] = system: NCI-60 human cancer cell line panel; test: NCI-60 cancer cell line panel five-dose screening (SRB); format: cell-based; details: read-out: GI50 (50% growth inhibition), NCI-60 five-dose screen, ~90% / almost all cell lines
Method: Detailed screening methodology can be accessed from the National Cancer Institute webpage. Briefly, 24 h after cell seeding into 96-well plates, they were treated with 5-log M concentration range of the compound for 2 days. Cytotoxicity was assessed using sulphorhodamine B (SRB) assay.

[2] = Plasma protein binding by equilibrium dialysis; format: in vitro ADME; details: human, 37° C.
[3] = Stability in mouse liver microsomes; format: in vitro ADME; details: MLM
TACC3 = molecular target: T1, TACC3 (Homo sapiens, UniProt Q9Y6A5); test: Target engagement assay (drug-target stabilization with increased temperature); format: binding; details: JIMT-1 cells
T1 construct: endogenous in cells; host or cells: JIMT-1

[4] = Stability in human liver microsomes; format: in vitro ADME; details: HLM
JIMT-1 xenografts = test: Breast cancer xenograft experiments (JIMT-1 in mammary fat pad); format: in vivo, female athymic nude mice
Method: Six-to-eight-week-old female athymic nude mice were housed with a temperature-controlled and 12-hour light/12-hour dark cycle environment. This study was carried out in accordance with Institutional Animal Care and Use Committee of Bilkent University and performed according to the institution's guidelines and animal research principles. For in vivo tumor growth, 4×10^6 JIMT-1 cells were prepared in 150 μl of 1:1 DMEM and Matrigel (Corning, N.Y., USA), v/v) and injected into the mammary fat pads (MFP) of female nude mice. Mouse weight and tumor volume were measure daily using calipers. Tumor volumes were calculated as length×width×0.5. Once the tumor volume had reached about 100 mm^3, xenografts were randomized into groups.

[5] = system: normal breast epithelial cells, MCF-12A; test: Cell viability assay, normal breast cell line; format: cell-based
Method: Next, the specificity of BO-264 towards cancer cell lines over normal cells were tested.
(§1) KHS101 and SPL-B were dissolved in 100% DMSO to yield a stock concentration of 50 mM. Newly synthesized molecules were dissolved in 100% DMSO to yield a stock concentration of 10 mM. For cell viability assay, JIMT-1 (3×10^3 cells/well), BT-474 T-DM1R (6×10^3 cells/well), MDA-MB-436 (4×10^3 cells/well), MDA-MB-157 (3×10^3 cells/well) and MCF-12A (5×10^3 cells/well) cells were seeded, and 24 hours after cell seeding inhibitor treatments were performed at different concentrations. Cell viability was measured 72 hours after treatment with Cell Titer Glo assay as recommended by the manufacturer.

[6] = Kinetic solubility in sodium phosphate buffer; format: physicochemical; details: sodium phosphate buffer pH 7.4, 25° C., 2 h
JIMT-1 cells [7] = test: Colony formation assay; format: cell-based, human; details: 12 days, versus other two inhibitors at the same doses (FIG. 6B)
Method: For monolayer culture, single-cell suspensions of JIMT-1 cells (3×10^3 cells/well) were plated in a 12-well plate. […] For both experimental setups, the media were refreshed every 4 days, and cells were incubated for 12 days. Cells were then fixed with 2% paraformaldehyde for 15 min and stained with 1% crystal violet (Merck, Darmstadt, Germany) for 15 min at RT. Surviving colonies (composed of at least 50 cells) were counted with ImageJ software (NIH).

[8] = system: JIMT-1 breast cancer cell lines; test: Cell viability assay (Cell Titer Glo), JIMT-1; format: cell-based; details: Homo sapiens, JIMT-1 breast cancer cells, 72 hours, read-out: IC50, proliferation / cell viability of JIMT-1
Method: As mentioned before, none of the available TACC3 inhibitors, such as KHS101 and SPL-B has yet advanced to the clinical studies. […] For this purpose, it was performed in-house screening of a series of small molecules by testing their anti-proliferative effects in breast cancer cells in which TACC3 is aberrantly expressed (Ma et al., 2003; Song et al., 2018). Specifically, JIMT-1 cell line was chosen for screening the effect of compounds in cell viability due to its high TACC3 protein level compared to other tested breast cancer cell lines as well as its in vivo tumorigenicity (Saatci et al., 2018; Tanner et al., 2004) (will be discussed in FIGS. 8 and 9-10, respectively).
as §1

[9] = system: JIMT-1, MDA-MB-436, MDA-MB-157 and BT-474 T-DM1R cell lines; test: Cell viability assay (Cell Titer Glo), breast cancer cell line panel; format: cell-based, human; details: all cell lines tested, 72 hours, Cell Titer Glo (FIG. 6A)
JIMT-1 cells [10] = test: Western blot of mitotic arrest, DNA damage and apoptosis markers; format: cell-based, human; details: 24 hours, Western blot (FIG. 6C)
[11] = molecular target: T2, Purified TACC3 recombinant protein (Homo sapiens, UniProt Q9Y6A5); test: Isothermal titration calorimetry (ITC); format: binding; details: 25° C.
T2 construct: purchased Origene TP310754
Method: Titrations were carried out using Microcal 200 equipment (GE Healthcare, Austria) at 25° C. For each titration, 10 injections were made with 6 min spacing. The reference power was set at 2 μcal/sec, and the sample cell was continuously stirred at 500 rpm. In order to assess the binding efficiency between drug and protein, background data obtained by protein injected into buffer alone was subtracted from the experimental isotherms. The data was analyzed using Origin 7 Software provided along with the ITC200, and binding parameters such as association constant (Ka), number of binding sites (N) and enthalpy (ΔH) were calculated.

[12] = system: glioblastoma (GBM) xenografts; details: Polson et al., 2018; cited from earlier work
[13] = 5 mg/kg (oral) every two days for 30 days (FIG. 9)

## COc1ccc(-c2cc(Nc3ccnc(N4CCOCC4)n3)on2)cc1 [BO-264, 3-(4-methoxyphenyl)-N-(2-morpholinopyrimidin-4-yl)isoxazol-5-amine]
[1]
  GI50: < 1000 nM
[2]
  fraction unbound: 0.0113
[3]
  stability in mouse liver microsomes: low stability
TACC3
  TACC3-BO-264 binding: validated
[4]
  stability in human liver microsomes: low stability
JIMT-1 xenografts; 2 mg/kg (oral or i.v) or 5 mg/kg (oral) every two days for 30 days (FIG. 10B)
  body weight of mice: did not have any negative effect
JIMT-1 xenografts; 2 mg/kg i.v every two days for 30 days (FIG. 10A)
  tumor growth rate compared with control group: decreased
JIMT-1 xenografts; 2 mg/kg oral every two days for 30 days (FIG. 10A)
  tumor growth rate compared with control group: decreased
JIMT-1 xenografts; [13]
  body weight of mice: no negative effects
  tumor growth compared to SPL-B: significant reduction of tumor growth
JIMT-1 xenografts; 5 mg/kg (oral) every two days for 30 days (FIG. 10A)
  tumor growth rate compared with control group: the most significant effect on tumor growth
JIMT-1 xenografts; 25 mg/kg oral for 23 days (FIG. 11A)
  tumor growth compared to vehicle-treated mice: very significant reduction of tumor growth
JIMT-1 xenografts; 25 mg/kg oral for 23 days (FIG. 11B)
  tumor weights compared to vehicle group: significantly lower
JIMT-1 xenografts; 25 mg/kg oral for 23 days (FIG. 11C)
  mice weight / tolerability: well tolerated
[5]; Homo sapiens, MCF-12A, 72 h, read-out: growth inhibition of MCF-12A cells
  inhibition at 10 µM: < 50%
[5]; normal breast cell line
  effect on normal breast cell line: minor effects
[6]
  solubility: low solubility
JIMT-1 cells [7]
  average colony number of JIMT-1 cells: significantly lower
[8]
  IC50: 232 nM
[9]
  IC50 values compared with KHS101 and SPL-B: significantly lower IC50 values than the two available TACC3 inhibitors
JIMT-1 cells [10]
  induction of mitotic arrest, DNA damage and apoptosis markers: at lower doses compared to other two TACC3 inhibitors; also recorded: in a dose-dependent manner
[11]
  N (number of binding sites): 0.704
  ΔH: 4.929e+07 cal/mol
  ΔS: 1.65E5 cal/mol/deg
[11]; titration of TACC3 into BO-264
  K (association constant): 6.23E8

## CC(C)CNc1ccnc(NCc2csc(-c3ccccc3)n2)n1 [KHS101, reference compound]
JIMT-1 cells [10]
  induction of mitotic arrest, DNA damage and apoptosis markers: at considerably higher doses; also recorded: only observed at very high doses
[12]
  tumor growth of glioblastoma (GBM) xenografts: suppressed
